Values joined by “and” are separate entries in the source; they are usually repeats but may differ in a detail not shown here. Equal values may be shown once.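 96-well plates; 48 h exposure; 5 concentrations. Endpoints by linear interpolation between flanking doses. Not reached: highest tested concentration assigned. Here, GI50 denotes the concentration required for 50% inhibition of growth. The concentration for full growth arrest is given as TGI.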
Key:
Assay in all cases: growth of human tumour cells (NCI), 48 h
RXF 393 renal = test system: RXF 393 renal
KM12 colon = test system: KM12 colon
SF-539 CNS = test system: SF-539 CNS
COLO 205 colon = test system: COLO 205 colon
UACC-62 melanoma = test system: UACC-62 melanoma
SN12C renal = test system: SN12C renal
HOP-62 NSCLC = test system: HOP-62 NSCLC
SNB-75 CNS = test system: SNB-75 CNS
U251 CNS = test system: U251 CNS
SNB-19 CNS = test system: SNB-19 CNS
MCF7 breast = test system: MCF7 breast
T-47D breast = test system: T-47D breast
OVCAR-3 ovarian = test system: OVCAR-3 ovarian
IGROV1 ovarian = test system: IGROV1 ovarian
SK-MEL-2 melanoma = test system: SK-MEL-2 melanoma
A498 renal = test system: A498 renal
HOP-92 NSCLC = test system: HOP-92 NSCLC
SW-620 colon = test system: SW-620 colon
SK-OV-3 ovarian = test system: SK-OV-3 ovarian
HL-60(TB) leukemia = test system: HL-60(TB) leukemia
ACHN renal = test system: ACHN renal
M14 melanoma = test system: M14 melanoma
NCI-H522 lung = test system: NCI-H522 lung
NCI-H460 lung = test system: NCI-H460 lung
DU-145 prostate = test system: DU-145 prostate
PC-3 prostate = test system: PC-3 prostate
UACC-257 melanoma = test system: UACC-257 melanoma
EKVX NSCLC = test system: EKVX NSCLC
SF-295 CNS = test system: SF-295 CNS
SF-268 CNS = test system: SF-268 CNS
A549 NSCLC = test system: A549 NSCLC
UO-31 renal = test system: UO-31 renal
K-562 leukemia = test system: K-562 leukemia
MDA-MB-231 breast = test system: MDA-MB-231 breast
NCI-H226 lung = test system: NCI-H226 lung
HCT-15 colon = test system: HCT-15 colon
OVCAR-8 ovarian = test system: OVCAR-8 ovarian
SK-MEL-5 melanoma = test system: SK-MEL-5 melanoma
BT-549 breast = test system: BT-549 breast
CCRF-CEM leukemia = test system: CCRF-CEM leukemia
HCT-116 colon = test system: HCT-116 colon
TK-10 renal = test system: TK-10 renal
MOLT-4 leukemia = test system: MOLT-4 leukemia
OVCAR-4 ovarian = test system: OVCAR-4 ovarian
SK-MEL-28 melanoma = test system: SK-MEL-28 melanoma
MALME-3M melanoma = test system: MALME-3M melanoma
LOX IMVI melanoma = test system: LOX IMVI melanoma
MDA-MB-435 = test system: MDA-MB-435
HS 578T breast = test system: HS 578T breast
786-0 renal = test system: 786-0 renal
CAKI-1 renal = test system: CAKI-1 renal
HT29 colon = test system: HT29 colon

How did the GI50 (RXF 393 renal) turn out when `CCN(CC)CCCC(CO)Nc1ccnc2cc(Cl)ccc12` (centres undefined) was run?
The GI50 was 35.8 µM and 41.1 µM.

What about the TGI (RXF 393 renal) of the same compound?
Its TGI is over 100 µM.

What about the GI50 (KM12 colon) of the same compound?
The GI50 was 49.1 µM and 66.8 µM.

And the TGI (KM12 colon)?
The TGI was over 100 µM.

What about the GI50 (SF-539 CNS) of the same compound?
The GI50 was 15.9 µM and 17.3 µM.

What about the TGI (SF-539 CNS) of the same compound?
The TGI was 35.4 µM and 35.3 µM.

And the GI50 (COLO 205 colon)?
Its GI50 is 39.9 µM and 34.5 µM.

What about the TGI (COLO 205 colon) of the same compound?
The TGI was over 100 µM.

And the GI50 (UACC-62 melanoma)?
The GI50 was 22.2 µM and 37.7 µM.

And the TGI (UACC-62 melanoma)?
Its TGI is 49.6 µM and > 100 µM.

And the GI50 (SN12C renal)?
Its GI50 is > 100 µM and 48.5 µM.

What about the TGI (SN12C renal) of the same compound?
Its TGI is over 100 µM.

What about the GI50 (HOP-62 NSCLC) of the same compound?
Its GI50 is 82.4 µM and 68.2 µM.

And the TGI (HOP-62 NSCLC)?
Its TGI is over 100 µM.

What about the GI50 (SNB-75 CNS) of the same compound?
Its GI50 is over 100 µM.

What about the TGI (SNB-75 CNS) of the same compound?
Its TGI is over 100 µM.

What about the GI50 (U251 CNS) of the same compound?
The GI50 was 67.6 µM and 70.8 µM.

And the TGI (U251 CNS)?
Its TGI is over 100 µM.

And the GI50 (SNB-19 CNS)?
Its GI50 is over 100 µM.

What about the TGI (SNB-19 CNS) of the same compound?
The TGI was over 100 µM.

What about the GI50 (MCF7 breast) of the same compound?
The GI50 was 47.9 µM and 56.1 µM.

And the TGI (MCF7 breast)?
Its TGI is over 100 µM.

What about the GI50 (T-47D breast) of the same compound?
The GI50 was over 100 µM.

What about the TGI (T-47D breast) of the same compound?
Its TGI is over 100 µM.

And the GI50 (OVCAR-3 ovarian)?
Its GI50 is 28.3 µM and 32.6 µM.

And the TGI (OVCAR-3 ovarian)?
Its TGI is 77.1 µM and > 100 µM.

What about the GI50 (IGROV1 ovarian) of the same compound?
The GI50 was over 100 µM.

And the TGI (IGROV1 ovarian)?
The TGI was over 100 µM.

What about the GI50 (SK-MEL-2 melanoma) of the same compound?
Its GI50 is > 100 µM and 90.2 µM.

What about the TGI (SK-MEL-2 melanoma) of the same compound?
The TGI was over 100 µM.

What about the GI50 (A498 renal) of the same compound?
The GI50 was > 100 µM and 32.7 µM.

And the TGI (A498 renal)?
Its TGI is over 100 µM.

What about the GI50 (HOP-92 NSCLC) of the same compound?
Its GI50 is 22.6 µM and 20.5 µM.

And the TGI (HOP-92 NSCLC)?
The TGI was > 100 µM and 88.5 µM.

And the GI50 (SW-620 colon)?
Its GI50 is 50.6 µM and > 100 µM.

What about the TGI (SW-620 colon) of the same compound?
The TGI was over 100 µM.

And the GI50 (SK-OV-3 ovarian)?
The GI50 was > 100 µM and 91.5 µM.

And the TGI (SK-OV-3 ovarian)?
Its TGI is over 100 µM.

What about the GI50 (HL-60(TB) leukemia) of the same compound?
The GI50 was 24.4 µM and 25 µM.

And the TGI (HL-60(TB) leukemia)?
Its TGI is over 100 µM.

What about the GI50 (ACHN renal) of the same compound?
The GI50 was > 100 µM and 54.1 µM.

And the TGI (ACHN renal)?
Its TGI is over 100 µM.

And the GI50 (M14 melanoma)?
The GI50 was 16.6 µM and 17 µM.

What about the TGI (M14 melanoma) of the same compound?
Its TGI is 30.9 µM and 31.2 µM.

And the GI50 (NCI-H522 lung)?
The GI50 was 56.9 µM and > 100 µM.

What about the TGI (NCI-H522 lung) of the same compound?
The TGI was over 100 µM.

What about the GI50 (NCI-H460 lung) of the same compound?
The GI50 was 66.2 µM and 82.7 µM.

What about the TGI (NCI-H460 lung) of the same compound?
The TGI was over 100 µM.

And the GI50 (DU-145 prostate)?
The GI50 was over 100 µM.

What about the TGI (DU-145 prostate) of the same compound?
Its TGI is over 100 µM.

What about the GI50 (PC-3 prostate) of the same compound?
Its GI50 is 66.2 µM and 34.4 µM.

What about the TGI (PC-3 prostate) of the same compound?
Its TGI is over 100 µM.

And the GI50 (UACC-257 melanoma)?
The GI50 was 18.1 µM and 19.2 µM.

And the TGI (UACC-257 melanoma)?
Its TGI is 33 µM and 35.2 µM.

What about the GI50 (EKVX NSCLC) of the same compound?
Its GI50 is 54.5 µM and 74.2 µM.

What about the TGI (EKVX NSCLC) of the same compound?
The TGI was over 100 µM.

And the GI50 (SF-295 CNS)?
The GI50 was 18.9 µM and 18 µM.

What about the TGI (SF-295 CNS) of the same compound?
The TGI was 46.6 µM and 45.3 µM.

What about the GI50 (SF-268 CNS) of the same compound?
Its GI50 is 64.3 µM and 75.7 µM.

And the TGI (SF-268 CNS)?
Its TGI is over 100 µM.

And the GI50 (A549 NSCLC)?
The GI50 was 50.9 µM and 73.7 µM.

What about the TGI (A549 NSCLC) of the same compound?
The TGI was over 100 µM.

What about the GI50 (UO-31 renal) of the same compound?
The GI50 was over 100 µM.

What about the TGI (UO-31 renal) of the same compound?
The TGI was over 100 µM.

What about the GI50 (K-562 leukemia) of the same compound?
The GI50 was 30.4 µM and 36.3 µM.

And the TGI (K-562 leukemia)?
The TGI was over 100 µM.

What about the GI50 (MDA-MB-231 breast) of the same compound?
Its GI50 is 70.3 µM and 57.1 µM.

What about the TGI (MDA-MB-231 breast) of the same compound?
The TGI was over 100 µM.

And the GI50 (NCI-H226 lung)?
The GI50 was > 100 µM and 36.5 µM.

And the TGI (NCI-H226 lung)?
The TGI was > 100 µM and 92.8 µM.

And the GI50 (HCT-15 colon)?
Its GI50 is over 100 µM.

And the TGI (HCT-15 colon)?
Its TGI is over 100 µM.

What about the GI50 (OVCAR-8 ovarian) of the same compound?
The GI50 was 38.5 µM and 56.1 µM.

What about the TGI (OVCAR-8 ovarian) of the same compound?
Its TGI is over 100 µM.

What about the GI50 (SK-MEL-5 melanoma) of the same compound?
Its GI50 is 20 µM and 18 µM.

And the TGI (SK-MEL-5 melanoma)?
Its TGI is 44.8 µM and 37.6 µM.

And the GI50 (BT-549 breast)?
The GI50 was 33.8 µM and 30.8 µM.

What about the TGI (BT-549 breast) of the same compound?
The TGI was over 100 µM.

And the GI50 (CCRF-CEM leukemia)?
Its GI50 is 45.4 µM and 15 µM.

And the TGI (CCRF-CEM leukemia)?
Its TGI is > 100 µM and 39.8 µM.

And the GI50 (HCT-116 colon)?
Its GI50 is 21.9 µM and 26.3 µM.

And the TGI (HCT-116 colon)?
Its TGI is 73.7 µM and 80.1 µM.

And the GI50 (TK-10 renal)?
Its GI50 is 46 µM and 32.4 µM.

And the TGI (TK-10 renal)?
Its TGI is over 100 µM.

And the GI50 (MOLT-4 leukemia)?
The GI50 was 31 µM and 34.3 µM.

And the TGI (MOLT-4 leukemia)?
The TGI was over 100 µM.

And the GI50 (OVCAR-4 ovarian)?
Its GI50 is > 100 µM and 58.2 µM.

And the TGI (OVCAR-4 ovarian)?
The TGI was over 100 µM.

What about the GI50 (SK-MEL-28 melanoma) of the same compound?
Its GI50 is 25 µM and > 100 µM.

What about the TGI (SK-MEL-28 melanoma) of the same compound?
The TGI was 57.5 µM and > 100 µM.

And the GI50 (MALME-3M melanoma)?
Its GI50 is 29.4 µM and 26.5 µM.

And the TGI (MALME-3M melanoma)?
The TGI was 59.1 µM and 49.9 µM.

And the GI50 (LOX IMVI melanoma)?
Its GI50 is 30.1 µM and 27.6 µM.

What about the TGI (LOX IMVI melanoma) of the same compound?
The TGI was 59.6 µM and 51.5 µM.

And the GI50 (MDA-MB-435)?
Its GI50 is 19.5 µM and 20.5 µM.

And the TGI (MDA-MB-435)?
Its TGI is 42.7 µM and 43.2 µM.

And the GI50 (HS 578T breast)?
The GI50 was > 100 µM and 72.5 µM.

What about the TGI (HS 578T breast) of the same compound?
The TGI was over 100 µM.

What about the GI50 (786-0 renal) of the same compound?
Its GI50 is 54.9 µM and 42.3 µM.

What about the TGI (786-0 renal) of the same compound?
The TGI was over 100 µM.

And the GI50 (CAKI-1 renal)?
Its GI50 is 32.7 µM and 30.7 µM.

And the TGI (CAKI-1 renal)?
The TGI was > 100 µM and 85.5 µM.

And the GI50 (HT29 colon)?
Its GI50 is 32.2 µM and 64.3 µM.

What about the TGI (HT29 colon) of the same compound?
Its TGI is over 100 µM.

Source: PubChem BioAssay (NCI)
